Data published in patent US11319565B2, “Method for preparing lipoamino acids based on deep eutectic solvents” (Jiangnan University, priority 2019, dated 2022).

Key:
[1] = Substrate solubility in natural deep eutectic solvent (polarizing microscope); type: physicochemical; conditions: in natural deep eutectic solvent C-Gly (choline chloride-glycerin), 60° C., 200 rpm
Procedure: 10 g of natural deep eutectic solvent (C-Gly) was accurately weighed and placed in a thermostatic shaking water bath at 60° C. After the temperature was constant, 10 mg of lauric acid was weighed and added thereto, and the mixture was shaken at 200 rpm for 30 min. Then a drop was taken out by a capillary and detected under a polarizing microscope. […] The final substrate solubility was calculated according to the following formula: S=mt×10/1000 (1).
Herein, S is the solubility and mt is the total addition amount of substrate.

[2] = CMC value determined by conductivity method; type: physicochemical; conditions: aqueous solution
Procedure: The CMC value is determined by a conductivity method: The relationship between the conductivity of an ionic surfactant aqueous solution and the concentration is used to draw a ∧m-C^1/2 curve, and the CMC value is derived from the turning point of the curve.
∧m=K/C. The unit of ∧m is S·m^2/mol, and the unit of C is mol/L.
For a strong electrolyte, if the temperature is constant, the molar conductivity ∧m of the strong electrolyte solution has a linear relationship with the concentration of the solution c^1/2 in an extremely low concentration range. For a colloidal electrolyte, the conductivity and molar conductivity of a dilute solution change in the same way as the strong electrolyte.

solubility [1] | Molecule | CMC value [2]
24.98 g/100 g | CCCCCCCCCCCC(=O)O [lauric acid] | –
– | CCCCCCCCCCCC(=O)NCC(=O)O [lauroyl glycine] | 0.0044 mol/L
– | Gemini lauroyl lysine [Gemini lauroyl amino acid] | 0.0044 mol/L
